Entries after “also recorded” stand apart in the source; their conditions may differ. Ends that are not written are not given here.
Experiments:
[1] = Hydrolysis in 5% NaHCO3 for one hour; assay type: physicochemical
[2] = Water solubility / feasibility of intranasal or intravenous dosing
[3] = Intranasal PK profile in rats; conditions: equivalent to 2 mg/kg hydrocodone freebase
[4] = Hydrolysis to hydrocodone in 1 N hydrochloric acid for 1 hour
[5] = Example 22: intranasal crushed / oral intact tablets human PK study vs HB/APAP
[6] = Example 20: intact Bz-HC in plasma samples of Examples 13-18; assay type: in vivo; conditions: humans, oral, LLOQ
Experimental: Validated LC/MS/MS methods were used to measure plasma concentrations of Bz-HC, hydrocodone, hydromorphone and acetaminophen (APAP). The lower limits of quantitation (LLOQ) for Bz-HC, hydrocodone, hydromorphone, and APAP in plasma were 25 pg/mL, 250 pg/mL, 25 pg/mL, and 0.025 μg/mL, respectively for examples 14-18. For example 13, the lower limits of quantitation (LLOQ) for Bz-HC, hydrocodone, hydromorphone were 0.5 ng/mL.
LC/MS/MS analyses were performed in order to attempt to measure intact Bz-HC concentrations in the plasma samples obtained from any of the blood samples described above in Examples 13-18. However, all plasma concentrations of intact Bz-HC were <LLOQ (25 pg/mL) and no PK analyses could be performed

[7] = system: trypsin, pancreatin, pepsin and various esterases; assay: Enzymatic tampering studies; assay type: in vitro ADME
Description: Without being bound by theory, it is believed that metabolism of Bz-HC after oral administration that allows for the rapid release of therapeutic amounts of hydrocodone requires the combinations and processes of the esterases and other enzymes functioning in the living enterocytes and liver tissue inside the body.

[8] = Oral PK profiles in dogs; conditions: equivalent to 2 mg/kg hydrocodone freebase
[9] = Oral PK profiles in rats (plasma hydrocodone, hydromorphone, intact Bz-HC by LC/MS/MS); conditions: equivalent to 2 mg/kg hydrocodone freebase
[10] = Tamper resistance: solvent hydrolysis studies; assay type: physicochemical
Experimental: In order to further evaluate the tamper-resistant properties of Bz-HC, a wide variety of Bz-HC solvent extraction studies were performed. […] The prodrug is not cleaved and no hydrocodone becomes available. […] We also conducted a wide variety of Bz-HC solvent hydrolysis studies in our own laboratories.

[11] = Chemical stability: hydrolysis of conjugates in water for one hour; assay type: physicochemical
Experimental: Exemplary conjugates of hydrocodone of the present technology and control test conjugates not of the present technology were tested for chemical stability under conditions similar to what a potential drug abuser may use to “extract” the active portion of the molecule, for example dissolved in water, hydrochloric acid or sodium bicarbonate either at ambient temperature or 100° C.

[12] = human, plasma, inhaled or intranasal, 13.34 mg

## Tyr-Tyr-Phe-Phe-Ile-Hydrocodone (YYFFI-Hydrocodone) [YYFFI-HC, reference compound]
[1]; 5% NaHCO3, 100° C.
  %-release in 5% NaHCO3: 70%
[1]; 5% NaHCO3, ambient (~20° C.)
  %-release in 5% NaHCO3: 0%

## COc1ccc2c3c1OC1C(OC(=O)CCCCC(=O)O)=CC[C@H]4[C@@H](C2)N(C)CC[C@]314 (stereo partly shown) [Adipate-HC, reference compound]
[2]
  water solubility (in words): water soluble
[1]; 5% NaHCO3, 100° C.
  %-release in 5% NaHCO3: 100%
[1]; 5% NaHCO3, ambient (~20° C.)
  %-release in 5% NaHCO3: 3%
[3]
  AUC for hydromorphone (FIG. 8), % higher than Bz-HC: approximately 750%
  AUC for hydromorphone (so in the source); FIG. 7, hydrocodone curves), % higher than Bz-HC: approximately 280%
  Cmax for hydromorphone (FIG. 8), % higher than Bz-HC: ~660%
  Cmax for hydromorphone (so in the source); FIG. 7, hydrocodone curves), % higher than Bz-HC: ~60%
[4]; 100° C.
  %-release in 1N HCl: 100%
[4]; ambient (~20° C.)
  %-release in 1N HCl: 13%

## COc1ccc2c3c1OC1C(OC(=O)c4ccccc4)=CCC4C(C2)N(C)CCC314 (stereo not shown) [Bz-HC, benzoate-hydrocodone]
[5]; human, plasma, inhaled or intranasal
  half-life: 66.6 min
[5]; [12]
  AUC(0-inf): 13.3 ± 8.86 ng·h/mL
  AUC(0-t): 13.2 ± 8.86 ng·h/mL
  Tmax: 27 min
[5]; intranasal crushed Bz-HC.HCl/APAP 13.34/650 mg
  Tlast of Bz-HC (time of the last quantifiable concentration), median: 6.22 h
[6]
  plasma concentrations of intact Bz-HC: < 0.025 ng/mL
[2]; human physiological pH of 7.4 (blood)
  solubility at physiological pH (in words): highly insoluble
[2]
  water solubility (in words): hydrophobic; also recorded: poor water solubility
[7]
  release of hydrocodone from the prodrug by enzymes (in words): no significant release of hydrocodone
[8]
  AUC value for intact Bz-HC as % of the AUC value for hydrocodone: approximately 10%
[9]
  AUC for intact Bz-HC as % of the AUC value for hydrocodone: approximately 10%
  AUC for intact Bz-HC as % of the AUC value for hydromorphone: ~3%
[10]; Acetone, ambient temperature, 0.5 h
  %-release of Hydrocodone: 0%
[10]; Acetone, ambient temperature, 1 h
  %-release of Hydrocodone: 0%
[10]; Acetone, ambient temperature, 4 h
  %-release of Hydrocodone: 0%
[10]; Acetone, at boiling point, 0.5 h
  %-release of Hydrocodone: 0%
[10]; Acetone, at boiling point, 1 h
  %-release of Hydrocodone: 0%
[10]; Acetone, at boiling point, 4 h
  %-release of Hydrocodone: 0%
[10]; Ethanol, ambient temperature, 0.5 h
  %-release of Hydrocodone: 0%
[10]; Ethanol, ambient temperature, 1 h
  %-release of Hydrocodone: 0%
[10]; Ethanol, ambient temperature, 4 h
  %-release of Hydrocodone: 0%
[10]; Ethanol, at boiling point, 0.5 h
  %-release of Hydrocodone: 0%
[10]; Ethanol, at boiling point, 1 h
  %-release of Hydrocodone: 0%
[10]; Ethanol, at boiling point, 4 h
  %-release of Hydrocodone: 0%
[10]; Ethyl acetate, ambient temperature, 0.5 h
  %-release of Hydrocodone: 0%
[10]; Ethyl acetate, ambient temperature, 1 h
  %-release of Hydrocodone: 0%
[10]; Ethyl acetate, ambient temperature, 4 h
  %-release of Hydrocodone: 0%
[10]; Ethyl acetate, at boiling point, 0.5 h
  %-release of Hydrocodone: 0%
[10]; Ethyl acetate, at boiling point, 1 h
  %-release of Hydrocodone: 0%
[10]; Ethyl acetate, at boiling point, 4 h
  %-release of Hydrocodone: 0%
[10]; Methanol, ambient temperature, 0.5 h
  %-release of Hydrocodone: 0%
[10]; Methanol, ambient temperature, 1 h
  %-release of Hydrocodone: 0%
[10]; Methanol, ambient temperature, 4 h
  %-release of Hydrocodone: 0%
[10]; Methanol, at boiling point, 0.5 h
  %-release of Hydrocodone: 0%
[10]; Methanol, at boiling point, 1 h
  %-release of Hydrocodone: 0%
[10]; Methanol, at boiling point, 4 h
  %-release of Hydrocodone: 0%
[10]; Methyl ethyl ketone, ambient temperature, 0.5 h
  %-release of Hydrocodone: 0%
[10]; Methyl ethyl ketone, ambient temperature, 1 h
  %-release of Hydrocodone: 0%
[10]; Methyl ethyl ketone, ambient temperature, 4 h
  %-release of Hydrocodone: 0%
[10]; Methyl ethyl ketone, at boiling point, 0.5 h
  %-release of Hydrocodone: 0%
[10]; Methyl ethyl ketone, at boiling point, 1 h
  %-release of Hydrocodone: 0%
[10]; Methyl ethyl ketone, at boiling point, 4 h
  %-release of Hydrocodone: 0%
[10]; Octane, ambient temperature, 0.5 h
  %-release of Hydrocodone: 0%
[10]; Octane, ambient temperature, 1 h
  %-release of Hydrocodone: 0%
[10]; Octane, ambient temperature, 4 h
  %-release of Hydrocodone: 0%
[10]; Octane, at boiling point, 0.5 h
  %-release of Hydrocodone: 0%
[10]; Octane, at boiling point, 1 h
  %-release of Hydrocodone: 0%
[10]; Octane, at boiling point, 4 h
  %-release of Hydrocodone: 0%
[10]; Petrol ether, ambient temperature, 0.5 h
  %-release of Hydrocodone: 0%
[10]; Petrol ether, ambient temperature, 1 h
  %-release of Hydrocodone: 0%
[10]; Petrol ether, ambient temperature, 4 h
  %-release of Hydrocodone: 0%
[10]; Petrol ether, at boiling point, 0.5 h
  %-release of Hydrocodone: 0%
[10]; Petrol ether, at boiling point, 1 h
  %-release of Hydrocodone: 0%
[10]; Petrol ether, at boiling point, 4 h
  %-release of Hydrocodone: 0%
[10]; Tetrahydrofuran, ambient temperature, 0.5 h
  %-release of Hydrocodone: 0%
[10]; Tetrahydrofuran, ambient temperature, 1 h
  %-release of Hydrocodone: 0%
[10]; Tetrahydrofuran, ambient temperature, 4 h
  %-release of Hydrocodone: 0%
[10]; Tetrahydrofuran, at boiling point, 0.5 h
  %-release of Hydrocodone: 0%
[10]; Tetrahydrofuran, at boiling point, 1 h
  %-release of Hydrocodone: 0%
[10]; Tetrahydrofuran, at boiling point, 4 h
  %-release of Hydrocodone: 0%
[10]; Toluene, ambient temperature, 0.5 h
  %-release of Hydrocodone: 0%
[10]; Toluene, ambient temperature, 1 h
  %-release of Hydrocodone: 0%
[10]; Toluene, ambient temperature, 4 h
  %-release of Hydrocodone: 0%
[10]; Toluene, at boiling point, 0.5 h
  %-release of Hydrocodone: 0%
[10]; Toluene, at boiling point, 1 h
  %-release of Hydrocodone: 0%
[10]; Toluene, at boiling point, 4 h
  %-release of Hydrocodone: 0%
[10]; Water, ambient temperature, 0.5 h
  %-release of Hydrocodone: 0%
[10]; Water, ambient temperature, 1 h
  %-release of Hydrocodone: 0%
[10]; Water, ambient temperature, 4 h
  %-release of Hydrocodone: 0%
[10]; Water, at boiling point, 0.5 h
  %-release of Hydrocodone: 0%
[10]; Water, at boiling point, 1 h
  %-release of Hydrocodone: 0%
[10]; Water, at boiling point, 4 h
  %-release of Hydrocodone: 0%
[10]; Xylene, ambient temperature, 0.5 h
  %-release of Hydrocodone: 0%
[10]; Xylene, ambient temperature, 1 h
  %-release of Hydrocodone: 0%
[10]; Xylene, ambient temperature, 4 h
  %-release of Hydrocodone: 0%
[10]; Xylene, at boiling point, 0.5 h
  %-release of Hydrocodone: 0%
[10]; Xylene, at boiling point, 1 h
  %-release of Hydrocodone: 0%
[10]; Xylene, at boiling point, 4 h
  %-release of Hydrocodone: 0%

## COc1ccc2c3c1OC1C(OC(=O)c4cccnc4)=CCC4C(C2)N(C)CCC314 (stereo not shown) [Nicotinate-HC, nicotinate-hydrocodone]
[2]
  water solubility (in words): hydrophobic
[9]
  AUC values of hydrocodone and hydromorphone compared to Hydrocodone.BT (in words): within the range of bioequivalence

## COc1ccc2c3c1OC1C(OC(=O)COCC(=O)O)=CC[C@H]4[C@@H](C2)N(C)CC[C@]314 (stereo partly shown) [Diglycolate-HC, reference compound]
[2]
  water solubility (in words): water soluble

## COc1ccc2c3c1OC1C(OC(=O)c4ccc5c(c4)OCO5)=CC[C@H]4[C@@H](C2)N(C)CC[C@]314 (stereo partly shown) [Piperonylate-HC]
[2]
  water solubility (in words): hydrophobic
[2]; listed as piperonylate-HC
  water solubility (in words): poorly water soluble

## COc1ccc(C(=O)OC2=CC[C@H]3[C@H]4Cc5ccc(OC)c6c5[C@@]3(CCN4C)C2O6)cc1 (stereo partly shown) [Compound 4-MeO-Bz-HC]
[2]
  water solubility (in words): hydrophobic
[11]; 100° C.
  %-release (conjugate hydrolyzed) in water: 0%
[11]; ambient (about 20° C.)
  %-release (conjugate hydrolyzed) in water: 0%

## COc1ccc2c3c1OC1C(OC(=O)c4cccc(O)c4)=CC[C@H]4[C@@H](C2)N(C)CC[C@]314 (stereo partly shown) [Compound 3-OH-Bz-HC]
[2]
  water solubility (in words): poorly water soluble; also recorded: hydrophobic

## COc1ccc2c3c1OC1C(OC(=O)c4ccc(O)cc4)=CC[C@H]4[C@@H](C2)N(C)CC[C@]314 (stereo partly shown) [Compound 4-OH-Bz-HC]
[2]
  water solubility (in words): hydrophobic
[1]; 5% NaHCO3, 100° C.
  %-release in 5% NaHCO3: 23%
[1]; 5% NaHCO3, ambient (~20° C.)
  %-release in 5% NaHCO3: 1%
[11]; 100° C.
  %-release (conjugate hydrolyzed) in water: 0%
[11]; ambient (about 20° C.)
  %-release (conjugate hydrolyzed) in water: 0%
[4]; 100° C.
  %-release in 1N HCl: 30%
[4]; ambient (~20° C.)
  %-release in 1N HCl: 0%

## COc1ccc(C(=O)OC2=CC[C@H]3[C@H]4Cc5ccc(OC)c6c5[C@@]3(CCN4C)C2O6)cc1O (stereo partly shown) [3-OH-4-MeO-Bz-HC]
[2]
  water solubility (in words): poorly water soluble; also recorded: hydrophobic
[1]; 5% NaHCO3, 100° C.
  %-release in 5% NaHCO3: 36%
[1]; 5% NaHCO3, ambient (~20° C.)
  %-release in 5% NaHCO3: 0%
[4]; 100° C.
  %-release in 1N HCl: 35%
[4]; ambient (~20° C.)
  %-release in 1N HCl: 0%

## 2-aminobenzoate hydrocodone [Compound 2-ABz-HC]
[11]; 100° C.
  %-release (conjugate hydrolyzed) in water: 0%
[11]; ambient (about 20° C.)
  %-release (conjugate hydrolyzed) in water: 0%
[9]
  AUC of hydrocodone, % lower than Hydrocodone.BT: approximately 35%
  AUC of hydromorphone, % lower than Hydrocodone.BT: approximately 25%
  Cmax of hydrocodone, % lower than Hydrocodone.BT: ~60%
  Cmax of hydromorphone, % lower than Hydrocodone.BT: ~50%
[4]; 100° C.
  %-release in 1N HCl: 16%
[4]; ambient (~20° C.)
  %-release in 1N HCl: 0%

From patent publication US10351573B2, “Benzoic acid, benzoic acid derivatives and heteroaryl carboxylic acid conjugates of hydrocodone, prodrugs, methods of making and uses thereof” (KemPharm, Inc., priority 2009, dated 2019)
